# Source: the kinase profiling compilation of Christmann-Franck et al. (2016)
# What was measured:
# Test in all cases: radiometric filter-binding kinase assay, Kinase HotSpot
# Conditions in all cases: compound 0.5 µM; ATP 10 µM
# PRKCI (human) = PRKCI (human) (UniProt P41743)
# MAP4K2 (human) = MAP4K2 (human) (UniProt Q12851)
# PRKCB2 (human) = PRKCB2 (human) (UniProt P05771)
# STK17A (human) = STK17A (human) (UniProt Q9UEE5)
# EPHB1 (human) = EPHB1 (human) (UniProt P54762)
# PRKG2 (human) = PRKG2 (human) (UniProt Q13237)
# PKN2 (human) = PKN2 (human) (UniProt Q16513)
# ROCK1 (human) = ROCK1 (human) (UniProt Q13464)
# IGF1R (human) = IGF1R (human) (UniProt P08069)
# EPHA7 (human) = EPHA7 (human) (UniProt Q15375)
# FGR (human) = FGR (human) (UniProt P09769)
# CSNK1A1 (human) = CSNK1A1 (human) (UniProt P48729)
# CSNK2A1 (human) = CSNK2A1 (human) (UniProt P68400)
# IKBKE (human) = IKBKE (human) (UniProt Q14164)
# Sequence of IKBKE (human) (Q14164 whole entry, looked up): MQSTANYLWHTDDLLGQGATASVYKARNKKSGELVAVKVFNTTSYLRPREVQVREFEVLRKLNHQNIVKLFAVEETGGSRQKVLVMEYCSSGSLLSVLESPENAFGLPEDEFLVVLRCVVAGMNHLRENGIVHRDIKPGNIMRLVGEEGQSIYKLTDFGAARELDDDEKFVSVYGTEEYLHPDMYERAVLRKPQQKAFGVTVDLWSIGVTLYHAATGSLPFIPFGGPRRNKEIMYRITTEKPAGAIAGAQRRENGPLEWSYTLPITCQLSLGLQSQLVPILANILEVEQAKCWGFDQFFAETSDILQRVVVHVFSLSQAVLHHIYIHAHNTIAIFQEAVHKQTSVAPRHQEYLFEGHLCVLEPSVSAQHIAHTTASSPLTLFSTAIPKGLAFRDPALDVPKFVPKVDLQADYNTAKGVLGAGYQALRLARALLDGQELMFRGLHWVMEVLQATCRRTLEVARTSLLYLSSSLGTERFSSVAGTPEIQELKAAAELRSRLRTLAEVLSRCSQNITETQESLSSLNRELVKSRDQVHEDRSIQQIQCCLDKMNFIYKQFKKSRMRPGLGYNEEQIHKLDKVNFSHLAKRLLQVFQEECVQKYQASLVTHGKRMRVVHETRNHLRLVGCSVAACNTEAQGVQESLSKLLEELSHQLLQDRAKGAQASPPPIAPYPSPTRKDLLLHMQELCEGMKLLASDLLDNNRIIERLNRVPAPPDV
# STK33 (human) = STK33 (human) (UniProt Q9BYT3)
# NEK2 (human) = NEK2 (human) (UniProt P51955)
# Sequence of NEK2 (human) (P51955 whole entry, looked up): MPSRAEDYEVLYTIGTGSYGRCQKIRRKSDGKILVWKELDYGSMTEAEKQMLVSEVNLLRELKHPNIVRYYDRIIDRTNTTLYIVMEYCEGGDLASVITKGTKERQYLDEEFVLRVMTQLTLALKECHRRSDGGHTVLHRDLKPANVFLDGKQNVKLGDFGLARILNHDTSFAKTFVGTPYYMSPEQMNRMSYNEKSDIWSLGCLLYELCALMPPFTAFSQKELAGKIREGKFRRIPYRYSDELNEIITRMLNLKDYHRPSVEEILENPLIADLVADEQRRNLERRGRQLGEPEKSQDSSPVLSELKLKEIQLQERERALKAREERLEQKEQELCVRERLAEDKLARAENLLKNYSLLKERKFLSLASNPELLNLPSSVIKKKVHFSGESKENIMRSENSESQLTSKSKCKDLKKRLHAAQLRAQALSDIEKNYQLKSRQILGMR
# MUSK (human) = MUSK (human) (UniProt O15146)
# Sequence of MUSK (human) (O15146 whole entry, looked up): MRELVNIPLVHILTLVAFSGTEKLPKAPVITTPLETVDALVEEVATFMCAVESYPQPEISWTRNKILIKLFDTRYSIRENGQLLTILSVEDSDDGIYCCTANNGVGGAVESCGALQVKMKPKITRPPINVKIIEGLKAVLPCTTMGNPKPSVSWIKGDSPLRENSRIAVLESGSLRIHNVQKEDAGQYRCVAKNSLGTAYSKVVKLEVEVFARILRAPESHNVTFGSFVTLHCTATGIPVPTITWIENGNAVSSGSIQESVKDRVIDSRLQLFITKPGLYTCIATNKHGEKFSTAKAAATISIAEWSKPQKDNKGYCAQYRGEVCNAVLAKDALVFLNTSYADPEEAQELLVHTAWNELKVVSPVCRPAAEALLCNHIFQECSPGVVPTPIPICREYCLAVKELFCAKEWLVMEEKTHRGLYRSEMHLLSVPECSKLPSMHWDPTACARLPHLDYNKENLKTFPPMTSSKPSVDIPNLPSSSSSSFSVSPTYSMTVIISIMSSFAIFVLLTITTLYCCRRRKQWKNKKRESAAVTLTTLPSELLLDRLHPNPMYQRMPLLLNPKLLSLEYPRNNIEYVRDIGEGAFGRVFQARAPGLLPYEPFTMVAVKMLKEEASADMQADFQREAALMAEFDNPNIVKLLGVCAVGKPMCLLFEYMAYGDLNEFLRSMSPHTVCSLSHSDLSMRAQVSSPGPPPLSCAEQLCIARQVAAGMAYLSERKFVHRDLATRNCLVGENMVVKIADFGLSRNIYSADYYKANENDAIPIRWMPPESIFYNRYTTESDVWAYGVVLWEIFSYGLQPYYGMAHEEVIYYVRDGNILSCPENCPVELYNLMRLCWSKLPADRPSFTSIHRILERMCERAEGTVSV
# TYRO3 (human) = TYRO3 (human) (UniProt Q06418)
# Sequence of TYRO3 (human) (Q06418 whole entry, looked up): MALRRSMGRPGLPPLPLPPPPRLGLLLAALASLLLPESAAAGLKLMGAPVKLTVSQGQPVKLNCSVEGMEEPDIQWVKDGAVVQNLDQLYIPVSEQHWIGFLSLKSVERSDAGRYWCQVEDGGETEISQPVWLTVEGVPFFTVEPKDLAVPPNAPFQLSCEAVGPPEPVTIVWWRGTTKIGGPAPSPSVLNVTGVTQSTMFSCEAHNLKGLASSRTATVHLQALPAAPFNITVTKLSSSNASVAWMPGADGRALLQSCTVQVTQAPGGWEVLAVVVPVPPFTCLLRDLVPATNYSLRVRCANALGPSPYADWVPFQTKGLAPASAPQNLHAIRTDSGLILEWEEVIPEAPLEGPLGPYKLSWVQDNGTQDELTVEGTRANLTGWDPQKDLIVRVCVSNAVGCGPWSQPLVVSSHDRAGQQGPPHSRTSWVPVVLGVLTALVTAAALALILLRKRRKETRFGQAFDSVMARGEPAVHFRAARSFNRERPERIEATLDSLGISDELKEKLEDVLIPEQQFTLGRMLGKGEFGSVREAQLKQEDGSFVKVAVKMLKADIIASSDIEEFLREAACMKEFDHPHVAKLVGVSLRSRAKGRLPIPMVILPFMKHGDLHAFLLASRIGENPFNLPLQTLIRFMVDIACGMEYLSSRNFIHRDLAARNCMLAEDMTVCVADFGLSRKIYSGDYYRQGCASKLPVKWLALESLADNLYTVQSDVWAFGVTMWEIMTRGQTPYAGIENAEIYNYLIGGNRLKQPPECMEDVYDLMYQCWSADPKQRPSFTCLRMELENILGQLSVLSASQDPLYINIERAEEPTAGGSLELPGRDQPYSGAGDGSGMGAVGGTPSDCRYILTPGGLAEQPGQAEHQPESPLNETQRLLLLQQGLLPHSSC
# PBK (human) = PBK (human) (UniProt Q96KB5)
# PRKCA (human) = PRKCA (human) (UniProt P17252)
# MAPKAPK2 (human) = MAPKAPK2 (human) (UniProt P49137)
# CDK3 CCNE1 (human) = CDK3 CCNE1 (human) (UniProt Q00526+P24864)
# Sequence of CDK3 CCNE1 (human) (P24864 whole entry, looked up): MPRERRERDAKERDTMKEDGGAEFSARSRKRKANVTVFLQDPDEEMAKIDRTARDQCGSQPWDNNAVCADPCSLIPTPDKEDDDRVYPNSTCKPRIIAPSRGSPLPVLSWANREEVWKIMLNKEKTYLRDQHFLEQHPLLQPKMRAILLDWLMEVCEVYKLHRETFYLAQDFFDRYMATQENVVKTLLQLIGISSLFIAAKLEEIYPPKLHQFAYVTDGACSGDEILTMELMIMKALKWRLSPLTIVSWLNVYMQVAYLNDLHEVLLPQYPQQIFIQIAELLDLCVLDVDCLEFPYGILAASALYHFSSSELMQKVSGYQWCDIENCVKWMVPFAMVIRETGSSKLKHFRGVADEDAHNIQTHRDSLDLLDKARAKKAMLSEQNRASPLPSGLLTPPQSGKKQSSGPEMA
# Sequence of CDK3 CCNE1 (human) (Q00526 whole entry, looked up): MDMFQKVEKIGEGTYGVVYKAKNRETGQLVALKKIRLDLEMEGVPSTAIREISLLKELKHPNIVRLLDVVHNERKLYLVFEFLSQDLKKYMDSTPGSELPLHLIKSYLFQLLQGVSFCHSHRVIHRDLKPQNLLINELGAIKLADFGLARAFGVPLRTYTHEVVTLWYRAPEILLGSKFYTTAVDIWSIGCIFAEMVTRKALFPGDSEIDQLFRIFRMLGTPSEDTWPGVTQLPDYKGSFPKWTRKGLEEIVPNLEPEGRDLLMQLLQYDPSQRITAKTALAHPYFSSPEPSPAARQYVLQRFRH
# MST1R (human) = MST1R (human) (UniProt Q04912)
# CLK3 (human) = CLK3 (human) (UniProt P49761)
# CSNK1E (human) = CSNK1E (human) (UniProt P49674)
# MYLK2 (human) = MYLK2 (human) (UniProt Q9H1R3)
# RIPK2 (human) = RIPK2 (human) (UniProt O43353)
# Sequence of RIPK2 (human) (O43353 whole entry, looked up): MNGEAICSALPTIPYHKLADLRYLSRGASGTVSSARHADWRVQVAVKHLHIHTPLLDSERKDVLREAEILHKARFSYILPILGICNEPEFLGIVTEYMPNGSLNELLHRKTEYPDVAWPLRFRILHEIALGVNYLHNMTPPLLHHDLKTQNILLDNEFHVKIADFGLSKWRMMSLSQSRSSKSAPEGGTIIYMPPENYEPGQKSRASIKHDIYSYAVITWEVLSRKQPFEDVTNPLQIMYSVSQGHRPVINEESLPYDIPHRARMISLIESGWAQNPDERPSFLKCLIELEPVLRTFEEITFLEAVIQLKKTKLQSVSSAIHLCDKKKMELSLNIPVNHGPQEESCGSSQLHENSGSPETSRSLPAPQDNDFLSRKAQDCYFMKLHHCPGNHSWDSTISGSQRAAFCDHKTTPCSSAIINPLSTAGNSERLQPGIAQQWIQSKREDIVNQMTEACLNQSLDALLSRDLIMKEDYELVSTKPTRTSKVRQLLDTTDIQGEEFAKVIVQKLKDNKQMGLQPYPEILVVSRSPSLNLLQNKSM
# MLTK (human) = MLTK (human) (UniProt Q9NYL2)
# PAK4 (human) = PAK4 (human) (UniProt O96013)
# Sequence of PAK4 (human) (O96013 whole entry, looked up): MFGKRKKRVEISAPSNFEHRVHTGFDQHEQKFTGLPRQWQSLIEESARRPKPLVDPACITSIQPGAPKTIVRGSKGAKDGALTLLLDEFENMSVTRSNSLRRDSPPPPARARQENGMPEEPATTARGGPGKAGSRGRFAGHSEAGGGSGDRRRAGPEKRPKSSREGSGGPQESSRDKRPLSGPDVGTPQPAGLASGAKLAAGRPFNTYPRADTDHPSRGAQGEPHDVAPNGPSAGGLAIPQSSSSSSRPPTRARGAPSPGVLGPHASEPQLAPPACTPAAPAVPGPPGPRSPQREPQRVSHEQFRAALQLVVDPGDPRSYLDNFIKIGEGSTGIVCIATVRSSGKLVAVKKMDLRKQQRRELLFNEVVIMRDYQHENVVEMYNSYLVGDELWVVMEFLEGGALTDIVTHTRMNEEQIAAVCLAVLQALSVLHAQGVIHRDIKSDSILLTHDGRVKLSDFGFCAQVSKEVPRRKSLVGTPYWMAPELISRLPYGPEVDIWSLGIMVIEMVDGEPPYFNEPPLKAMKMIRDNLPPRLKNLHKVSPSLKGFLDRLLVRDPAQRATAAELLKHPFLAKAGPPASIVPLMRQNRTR
# FYN (human) = FYN (human) (UniProt P06241)
# ADRBK1 (human) = ADRBK1 (human) (UniProt P25098)
# MAP3K5 (human) = MAP3K5 (human) (UniProt Q99683)
# PLK3 (human) = PLK3 (human) (UniProt Q9H4B4)
# JAK3 JH1 JH2 (human) = JAK3 JH1 JH2 (human) (UniProt P52333)
# ERBB2 (human) = ERBB2 (human) (UniProt P04626)
# TBK1 (human) = TBK1 (human) (UniProt Q9UHD2)
# EPHA3 (human) = EPHA3 (human) (UniProt P29320)
# RPS6KB1 (human) = RPS6KB1 (human) (UniProt P23443)
# IKBKB (human) = IKBKB (human) (UniProt O14920)
# DYRK1B (human) = DYRK1B (human) (UniProt Q9Y463)
# CAMKK1 (human) = CAMKK1 (human) (UniProt Q8N5S9)
# MAP3K11 (human) = MAP3K11 (human) (UniProt Q16584)
structure (smiles),measurement,setting,value
O=C(NC(NC(=S)Nc1ccc(F)c([N+](=O)[O-])c1)C(Cl)(Cl)Cl)C(c1ccccc1)c1ccccc1 (centres undefined),residual activity,PRKCI (human),94%
same,residual activity,MAP4K2 (human),111%
same,residual activity,PRKCB2 (human),107%
same,residual activity,STK17A (human),99.8%
same,residual activity,EPHB1 (human),109%
same,residual activity,PRKG2 (human),96.6%
same,residual activity,PKN2 (human),88.1%
same,residual activity,ROCK1 (human),99.8%
same,residual activity,IGF1R (human),93.7%
same,residual activity,EPHA7 (human),109%
same,residual activity,FGR (human),84.5%
same,residual activity,CSNK1A1 (human),94.1%
same,residual activity,CSNK2A1 (human),95.4%
same,residual activity,IKBKE (human),106%
same,residual activity,STK33 (human),99.6%
same,residual activity,NEK2 (human),112%
same,residual activity,MUSK (human),106%
same,residual activity,TYRO3 (human),108%
same,residual activity,PBK (human),116%
same,residual activity,PRKCA (human),73.1%
same,residual activity,MAPKAPK2 (human),96.3%
same,residual activity,CDK3 CCNE1 (human),105%
same,residual activity,MST1R (human),102%
same,residual activity,CLK3 (human),124%
same,residual activity,CSNK1E (human),111%
same,residual activity,MYLK2 (human),104%
same,residual activity,RIPK2 (human),97.4%
same,residual activity,MLTK (human),98.6%
same,residual activity,PAK4 (human),118%
same,residual activity,FYN (human),91.2%
same,residual activity,ADRBK1 (human),79.5%
same,residual activity,MAP3K5 (human),97.1%
same,residual activity,PLK3 (human),94.4%
same,residual activity,JAK3 JH1 JH2 (human),110%
same,residual activity,ERBB2 (human),94.8%
same,residual activity,TBK1 (human),98.7%
same,residual activity,EPHA3 (human),105%
same,residual activity,RPS6KB1 (human),91.9%
same,residual activity,IKBKB (human),102%
same,residual activity,DYRK1B (human),103%
same,residual activity,CAMKK1 (human),128%
same,residual activity,MAP3K11 (human),102%
Cc1cc2ncc(-c3ccccc3)nc2cc1C,residual activity,PRKCI (human),98%
same,residual activity,MAP4K2 (human),113%
same,residual activity,PRKCB2 (human),124%
same,residual activity,STK17A (human),80%
same,residual activity,EPHB1 (human),91.1%
same,residual activity,PRKG2 (human),99.3%
same,residual activity,PKN2 (human),104%
same,residual activity,ROCK1 (human),100%
same,residual activity,IGF1R (human),86.8%
same,residual activity,EPHA7 (human),96.6%
same,residual activity,FGR (human),99.1%
same,residual activity,CSNK1A1 (human),95.4%
same,residual activity,CSNK2A1 (human),102%
same,residual activity,IKBKE (human),101%
same,residual activity,STK33 (human),94.1%
same,residual activity,NEK2 (human),75.7%
same,residual activity,MUSK (human),102%
same,residual activity,TYRO3 (human),90.9%
same,residual activity,PBK (human),94.5%
same,residual activity,PRKCA (human),90.5%
same,residual activity,MAPKAPK2 (human),95.9%
same,residual activity,CDK3 CCNE1 (human),96.7%
same,residual activity,MST1R (human),99.4%
same,residual activity,CLK3 (human),92.8%
same,residual activity,CSNK1E (human),85.5%
same,residual activity,MYLK2 (human),99.7%
same,residual activity,RIPK2 (human),98.3%
same,residual activity,MLTK (human),102%
same,residual activity,PAK4 (human),105%
same,residual activity,FYN (human),99.4%
same,residual activity,ADRBK1 (human),92.5%
same,residual activity,MAP3K5 (human),107%
same,residual activity,PLK3 (human),90.1%
same,residual activity,JAK3 JH1 JH2 (human),101%
same,residual activity,ERBB2 (human),97.4%
same,residual activity,TBK1 (human),93.8%
same,residual activity,EPHA3 (human),109%
same,residual activity,RPS6KB1 (human),88.2%
same,residual activity,IKBKB (human),101%
same,residual activity,DYRK1B (human),106%
same,residual activity,CAMKK1 (human),98%
same,residual activity,MAP3K11 (human),97.3%
